According to publication PMC7956620 (Molecules, 2021):

Target: T1, human 5-HT3A receptor (Homo sapiens, UniProt P46098)
T1 construct: host or cells: Xenopus laevis oocytes injected with in vitro transcribed mRNA
T1 sequence (P46098 24-478): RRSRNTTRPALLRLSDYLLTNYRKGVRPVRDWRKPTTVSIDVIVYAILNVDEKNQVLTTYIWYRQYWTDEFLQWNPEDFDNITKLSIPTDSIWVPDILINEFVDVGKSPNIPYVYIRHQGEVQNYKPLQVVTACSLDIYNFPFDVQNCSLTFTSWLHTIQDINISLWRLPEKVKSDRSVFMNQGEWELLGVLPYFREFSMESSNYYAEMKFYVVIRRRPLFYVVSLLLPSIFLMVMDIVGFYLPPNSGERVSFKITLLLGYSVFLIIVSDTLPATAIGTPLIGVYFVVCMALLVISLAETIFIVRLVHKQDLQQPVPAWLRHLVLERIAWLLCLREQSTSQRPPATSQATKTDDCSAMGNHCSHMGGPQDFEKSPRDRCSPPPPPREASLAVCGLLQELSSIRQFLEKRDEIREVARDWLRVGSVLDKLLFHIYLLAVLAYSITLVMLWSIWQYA
Test: cell-based
Format: cell-based
Procedure: Human 5-hydroxytryptamine (serotonin) receptor 3A cDNA (Genebank number: BC004453) was obtained from OriGene (Rockville, MD, USA). Figure 1A represents the chemical structure of two ergot alkaloids, EG and EC, obtained from Sigma-Aldrich (St. Louis, MO, USA). These ergot alkaloids were diluted in bath solution after dissolving in dimethyl sulfoxide (DMSO) for use as stock solutions. The final treatment concentration of DMSO was less than 0.01%. Xenopus laevis frogs were obtained from the Korean Xenopus Resource Center for Research (KXRCR000001, Chuncheon, Gangwondo, Korea), and other agents were purchased from Sigma-Aldrich.
To isolate oocytes, female Xenopus laevis were put into a container filled with ice and left for about one hour. When the blood vessels contracted and fell into a state similar to hibernation, the abdomen was incised, and the ovaries were removed and cut into small pieces in Ca^2+-free OR2 solution (82.5 mM NaCl, 2.5 mM KCl, 1 mM MgCl2, and 5 mM HEPES, pH 7.4) with 2 mg/mL collagenase. After a 2 h agitation to digest the follicle membranes, isolated oocytes in stages Ⅴ and Ⅵ were selected and washed repeatedly. The selected oocytes were maintained in ND96 incubation solution (96 mM NaCl, 2 mM KCl, 1.8 mM CaCl2, 1 mM MgCl2, 5 mM HEPES, 2.5 mM sodium pyruvate, and 50 µg/mL gentamycin, pH 7.4) at 16–18 °C. The solution containing the oocytes was changed twice a day and stored in a shaking incubator. Under the microscope, the end of a glass capillary was broken and fitted with a 20 µm diameter needle and filled with mineral oil, discharging air bubbles from the tip. When the Xenopus oocytes were ready for injection, 50 ng of mRNA was injected with a nanoliter injector (Drummond Scientific, Vernon Hills, IL, USA). The recording was started after two days of sufficient shaking incubation in ND96 solution. Surgery, microinjections, and the other handling of Xenopus laevis followed the standard protocols.
The oocytes in which mRNA was expressed during the incubation period allowed for the estimation of channel or receptor properties for observing drug and ligand potential interactions using a two-electrode voltage clamp (OC-725C; Warner Instruments, Hamden, CT, USA) and Digidata (1322A; Molecular Devices, Sunnyvale, CA, USA). The two-electrode voltage clamp had voltage and current electrodes that stably maintained the potential and delivered the transmembrane potential and high current. […] A computer transferred the converted output amplitude of the voltage clamp amplifiers to an input digital converter using pClamp 10 software (Axon Instruments, Union City, CA, USA). The voltage and current electrodes were filled with 3 M KCl (0.3–0.7 MΩ) and analyzed at a −80 mV holding potential. The oocytes were placed in the chamber and exposed to a ND96 solution at a flow rate of 2 mL per minute. In the electrophysiological experiments, the voltage ramp recording was performed at room temperature, and a current from −80 to +60 mV was applied to determine the current and voltage relationships. Inward peak traces of the 5-HT3A receptor and voltage ramp traces were converted to a value through Clampfit 9.0 (Molecular Devices, San Jose, CA, USA).
In the experiments, all data were represented as the mean ± SEM (standard error of the mean) of the 5-HT-stimulated inward peak in the 5-HT3A receptors. […] All curves plotted through the Hill equation were generated using Origin Pro 7.0 (OriginLab, Northampton, MA, USA). The significance of differences between the control and chanoclavine treatment was determined according to the p-value in the Student’s t-test. p-values of less than 0.05 were considered statistically significant.

Compound	Imax of normalized 5-HT concentration-response current	inhibition at 100 µM (100 µM compound with 100 µM 5-HT, −80 mV, read-out: inhibition of I5-HT)	maximum inhibition (Imax) (Hill fit, co-application with 100 µM 5-HT, −80 mV)	effect of co-application with 5-HT on current (various concentrations with 100 µM 5-HT)	effect of compound alone (without 5-HT) (−80 mV holding potential, data not shown)
NCCc1c[nH]c2ccc(O)cc12 [5-HT, 5-hydroxytryptamine, reference compound]	99.1 ± 14.2				
C[C@@H](CO)NC(=O)[C@@H]1C=C2c3cccc4[nH]cc(c34)C[C@H]2N(C)C1 [ergonovine, reference compound]		1.1 ± 4.8%	15 ± 5.7%	did not show any noticeable reduction	no change
